Measured values reported in US6489321B1, “Nonpeptide substituted benzothiazepines as vasopressin antagonists” (Ortho-McNeil Pharmaceutical, Inc., priority 1999, dated 2002).

How the values were obtained:
vasopressin V1a receptor = vasopressin V1a receptor (Homo sapiens, UniProt P37288); experiment: In-vitro vasopressin receptor binding assay, V1a; settings: for inhibition at 0.1 µM: read-out: Receptor Binding (% Inh. @ concentration in μM) V1a
cloned human V2 receptor = biological target: T1, cloned human V2 receptor (Homo sapiens, UniProt P30518); experiment: In-vitro vasopressin receptor binding assay, V2; settings: 3H-arginine-8-vasopressin; for IC50: footnote 1: IC50 values (μM); for Receptor Binding (% Inh. @ concentration in μM) V2: 0.1 μM test compound
T1 construct: expressed in transfected cells
Description: Assay buffer is 50 mM Tris-Cl, 5 mM MgC12, 0.1% BSA (pH 7.5) containing 5 ug/ml of aprotinin, leupeptin, pepstatin, 50 ug/ml bacitracin, and 1 mM Pefabloc. H3 vasopressin is ^3H-arginine-8-vasopressin (68.5 Ci/mmol, final concentration in assay is 0.65-0.75nM). Into wells of 96-well round bottom polypropylene plates are added buffer, test compound, membrane (containing cloned human V2 receptor), and H3 vasopressin. The reaction plates are allowed to sit at room temperature for one hour. The samples are filtered through Unifilter GF/C plates (presoaked in 0.3 polyethyleneimine). The plates are washed 5 times with cold physiological saline containing 0.05% Tween 20. After drying, the bottom of the filter plates are sealed and 0.025 ml of Microscint-20 is added to each filter. The top of the plate is sealed, and the plate is counted. Non-specific binding is determined by the addition of 1.25 uM arginine-8-vasopressin in those wells. %Inh. is [formula]

T1 sequence (P30518 whole entry): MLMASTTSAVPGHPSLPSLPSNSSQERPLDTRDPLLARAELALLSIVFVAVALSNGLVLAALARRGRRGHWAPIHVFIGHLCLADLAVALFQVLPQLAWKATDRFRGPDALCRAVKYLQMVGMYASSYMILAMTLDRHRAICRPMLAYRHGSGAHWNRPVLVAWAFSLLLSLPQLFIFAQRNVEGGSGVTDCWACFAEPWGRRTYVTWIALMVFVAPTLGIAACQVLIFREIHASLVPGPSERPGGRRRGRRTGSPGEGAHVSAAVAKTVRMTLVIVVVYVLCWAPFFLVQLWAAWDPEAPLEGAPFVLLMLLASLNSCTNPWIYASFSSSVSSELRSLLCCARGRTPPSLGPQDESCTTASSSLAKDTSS
vasopressin V1a receptor, sequence (P37288 whole entry): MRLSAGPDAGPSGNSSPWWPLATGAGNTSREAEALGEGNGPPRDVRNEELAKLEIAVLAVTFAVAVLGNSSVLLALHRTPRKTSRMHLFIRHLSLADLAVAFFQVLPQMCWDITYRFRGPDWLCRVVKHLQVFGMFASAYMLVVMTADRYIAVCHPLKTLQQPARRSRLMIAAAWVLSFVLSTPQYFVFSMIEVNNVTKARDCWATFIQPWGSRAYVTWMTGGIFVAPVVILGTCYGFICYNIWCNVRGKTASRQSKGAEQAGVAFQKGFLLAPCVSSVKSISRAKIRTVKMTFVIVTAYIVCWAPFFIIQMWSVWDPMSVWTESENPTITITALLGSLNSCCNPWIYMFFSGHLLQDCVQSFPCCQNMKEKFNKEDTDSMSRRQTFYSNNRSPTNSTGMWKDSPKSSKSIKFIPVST

Row | Structure (SMILES) | melting point | inhibition at 0.1 µM (vasopressin V1a receptor; 0.1 μM test compound) | IC50 (cloned human V2 receptor) | Receptor Binding (% Inh. @ concentration in μM) V1a (vasopressin V1a receptor; 0.1 μM test compound) | Receptor Binding (% Inh. @ concentration in μM) V2 (cloned human V2 receptor) | Receptor Binding (% Inh. @ concentration in μM) V1a (vasopressin V1a receptor; concentration not given)
1 | O=C(O)CC1CCN(C(=O)c2ccc(NC(=O)c3ccccc3-c3ccccc3)cc2)c2ccccc2S1 (centres unmarked) [Compound 29, 2-Carboxymethyl-5-(4-(2-phenylbenzolylamino)benzoyl)-1,5-benzothiazepine] | 204 to 208 °C | 16% | 0.004 µM |  |  | 
2 | N#CCCC1CCN(C(=O)c2ccc(NC(=O)c3ccccc3-c3ccccc3)cc2)c2ccccc2S1 (centres unmarked) [Compound 30] |  |  | 0.069 µM | 34% @ .1 |  | 
3 | O=C(O)CCC1CCN(C(=O)c2ccc(NC(=O)c3ccccc3-c3ccccc3)cc2)c2ccccc2S1 (centres unmarked) [Compound 31] |  | 30% | 0.009 µM |  |  | 
4 | O=C(Nc1ccc(C(=O)N2CCC(CCS(=O)(=O)O)Sc3ccccc32)cc1)c1ccccc1-c1ccccc1 (centres unmarked) [Compound 32, 2-Ethyl[5-[4-(2-phenylbenzoylamino)benzoyl]-1,5-benzothiazepin]sulfonic Acid] |  | 10% | 0.012 µM |  |  | 
5 | O=C(Nc1ccc(C(=O)N2CCC(CCO)S(=O)(=O)c3ccccc32)cc1)c1ccccc1-c1ccccc1 (centres unmarked) [Compound 35, 2-(2-Hydroxyethyl)-1-dioxo-5-(4-(2-phenylbenzoylamino)-benzoyl)-1,5-benzothiazepine] |  |  |  | 2% @ .1 | 20% @ .1 | 
6 | O=C(Nc1ccc(C(=O)N2CCC(CCO)[S+]([O-])c3ccccc32)cc1)c1ccccc1-c1ccccc1 (centres unmarked) [Compound 36, 2-(2-hydroxyethyl)-1-oxo-5-(4-(2-phenylbenzoylamino)-benzoyl)-1,5-benzothiazepine] |  |  |  | 0 @ .1% | 38% @ .1 | 
7 | COC(=O)CC1CCN(C(=O)c2ccc(NC(=O)c3ccccc3-c3ccccc3)cc2)c2ccccc2S1 (centres unmarked) [Compound 37, 2-Methyl-[5-(4-(2-phenylbenzoylamino)benzoyl)-1,5-benzothiazepine]acetate] |  |  | 0.05 µM | 17% @ .1 |  | 
8 | CC(C)(N)C(=O)NCCC1CCN(C(=O)c2ccc(NC(=O)c3ccccc3-c3ccccc3)cc2)c2ccccc2S1.Cl (centres unmarked) [Compound 39, 2-[2-Amino-2-methylpropionamido]-ethyl-5-[4-(2-phenylbenzoylamino)benzoyl]-1,5-benzothiazepine Hydrochloride] |  |  | 0.017 µM |  |  | 0%
